Test results taken from US10947201B2, “Certain chemical entities, compositions, and methods” (NEUPHARMA, INC., priority 2015, dated 2021).

Legend:
BTK = biological target: T1, BTK (Homo sapiens, UniProt Q06187); test: Z'-LYTE kinase inhibition assay (Invitrogen), BTK; assay type: biochemical; settings: for inhibition at 0.1 µM: compound at 100 nM, [ATP] = Km
T1 construct: purchased Invitrogen
Protocol: (§1) Inhibitory activities of compounds against BTK, EGFR and EGFR mutants (EGFR L858R/T790M) were measured by Invitrogen using Z′-LYTE® Method as briefly described in the following.
(§2) Test Compounds are screened in 1% DMSO (final) in the well. For 10 point titrations, 3-fold serial dilutions are conducted from the starting concentration. All ATP Solutions are diluted to a 4× working concentration in Kinase Buffer (50 mM HEPES pH 7.5, 0.01% BRIJ-35, 10 mM MgCl2, 1 mM EGTA). Peptide/Kinase Mixtures are diluted to a 2× working concentration in the appropriate Kinase Buffers as described below.
(v) Peptide/Kinase Mixtures for measurement of BTK:
The 2×BTK/Tyr 01 mixture is prepared in 50 mM HEPES pH 7.5, 0.01% BRIJ-35, 10 mM MgCl2, 1 mM EGTA. The final 10 μL Kinase Reaction consists of 1.04-10.4 ng BTK and 2 μM Tyr 01 in 50 mM HEPES pH 7.5, 0.01% BRIJ-35, 10 mM MgCl2, 1 mM EGTA. After the 1 hour Kinase Reaction incubation, 5 μL of a 1:256 dilution of Development Reagent B is added.
(§3) Reaction starts by 30-second shaking of mixture consisting of 2.5 μL 4× test compound, 5 μL 2× kinase reaction mixture and 2.5 μL 4×ATP Solution on Bar-coded Corning, low volume NBS, black 384-well plate (Corning Cat. #3676). Then the mixture is incubated for 60-minute at room temperature for the kinase reaction, followed by addition of 5 μL of a 1:1024 dilution of development reagent A and 30-second plate shake. The mixture is then incubated for another 60-minute at room temperature for development reaction. Finally fluorescence is read by plate reader. […] The scale utilized in Tables 2 and 3 is as follows: ++ more than 50% inhibition and + less than 50% inhibition.
(§4) To determine IC50 of a compound against EGFR or EGFR mutants, a series of concentrations of the compound were tested for the inhibition. IC50 was calculated by plotting the concentration of compound vs the percentage of inhibition in treated wells using GraphPad Prism 5. […] The scale utilized in Table 4 is as follows: ++ less than 100 nM and + greater than 100 nM.

A549 cells = test: MTT cell growth inhibition assay, A549; assay type: cell-based; settings: Homo sapiens, A549 cells (KRAS mutation), 72 h
Protocol: (§5) Inhibition of cell growth by compounds was measured using MTT assay (Mosmann, T., Journal of Immunological Methods, 1983, 65, 55-63). Tumor cell lines were purchased from ATCC (American Type Culture Collection, Manassas, Va.). All cell lines were maintained in RPMI 1640 (Hyclone) supplemented with 10% fetal bovine serum (FBS, Hyclone), glutamine (2 mM, Hyclone), and antibiotics (penicillin 100 U/mL and streptomycin 50 μg/mL) at 37° C. in a humidified atmosphere of 5% CO2 in air. Taxol (as a positive control, Sigma) and compounds were dissolved in DMSO (Sigma), and the final concentration of DMSO in the medium was 1%. Tumor cells were plated in 96-well plates at densities of about 4000 cells/well of a 96-well plate and allowed to adhere/grow for 24 h. They were then treated with various concentrations of drug for 72 h. 3-(4,5-Dimethylthiazol-2-yl)-2,5-diphenyltetrazolium bromide (MTT, Sigma) was used to determine the number of viable cells at the time of compound addition and the number of cells remaining after 72 h compound exposure. The number of cells remaining after 72 h was compared to the number of viable cells at the time of compound addition by measuring the absorbance at 570 nm, allowing for the calculation of growth inhibition.
(§6) All concentrations of compounds were tested in triplicate and controls were averaged over 4 wells. IC50 was calculated by plotting the concentration of compound vs the percentage of inhibition in treated wells using GraphPad Prism 5.
(§7) Tables 5 show IC50 values of several compounds of the invention in A549, A431, H1299, and H1975 human cancer cells. A549 cells have a mutation on KRAS, H3255 cells have L858R mutation, and H1975 cells have double EGFR mutations (L858R/T790M). The scale utilized in Table 5 is as follows: +++ less than 100 nM; ++ between 100 nM and 500 nM; and + greater than 500 nM.

A431 cells = test: MTT cell growth inhibition assay, A431; assay type: cell-based; settings: Homo sapiens, A-431, 72 h
Protocol: as §5, §6, §7

H1975 cells = test: MTT cell growth inhibition assay, H1975; assay type: cell-based; settings: Homo sapiens, NCI-H1975, H1975 cells (EGFR L858R/T790M), 72 h
Protocol: as §5, §6, §7

EGFR (ErbB1) = biological target: T2, EGFR (ErbB1) (Homo sapiens, UniProt P00533); test: Z'-LYTE kinase inhibition assay (Invitrogen), EGFR; assay type: biochemical; settings: for inhibition at 0.1 µM: compound at 100 nM, [ATP] = Km
T2 construct: purchased Invitrogen
Protocol: as §1, §2
(i) Peptide/Kinase Mixtures for measurement of EGFR (ErbB1):
The 2×EGFR (ErbB1)/Tyr 04 mixture is prepared in 50 mM HEPES pH 7.5, 0.01% BRIJ-35, 10 mM MgCl2, 4 mM MnCl2, 1 mM EGTA, 2 mMDTT. The final 10 μL Kinase Reaction consists of 1.1-5.25 ng EGFR (ErbB1) and 2 μM Tyr 04 in 50 mM HEPES pH 7.5, 0.01% BRIJ-35, 10 mM MgCl2, 2 mM MnCl2, 1 mM EGTA, 1 mM DTT. After the 1 hour Kinase Reaction incubation, 5 μL of a 1:64 dilution of DevelopmentReagent B is added.
as §3, §4

EGFR (ErbB1) T790M L858R = biological target: T3, EGFR (ErbB1) T790M L858R (Homo sapiens, UniProt P00533, L858R/T790M); test: Z'-LYTE kinase inhibition assay (Invitrogen), EGFR L858R/T790M; assay type: biochemical; settings: for inhibition at 0.1 µM: compound at 100 nM, [ATP] = Km
T3 construct: purchased Invitrogen
Protocol: as §1, §2
(iv) Peptide/Kinase Mixtures for measurement of EGFR (ErbB1) T790M L858R:
The 2×EGFR (ErbB1) T790M L858R/Tyr 04 mixture is prepared in 50 mM HEPES pH 6.5, 0.01% BRIJ-35, 10 mM MgCl2, 1 mM EGTA, 0.02% NaN3. The final 10 μL Kinase Reaction consists of 0.38-4.22 ng EGFR (ErbB1) T790M L858R and 2 μM Tyr 04 in 50 mM HEPES pH 7.0, 0.01% BRIJ-35, 10 mM MgCl2, 1 mM EGTA, 0.01% NaN3. After the 1 hour Kinase Reaction incubation, 5 μL of a 1:64 dilution of Development Reagent B is added.
as §3, §4

H3255 cells = test: MTT cell growth inhibition assay, H3255; assay type: cell-based; settings: Homo sapiens, NCI-H3255, H3255 cells (L858R mutation), 72 h
Protocol: as §5, §6, §7

T3 sequence (P00533 25-1210 T790M/L858R): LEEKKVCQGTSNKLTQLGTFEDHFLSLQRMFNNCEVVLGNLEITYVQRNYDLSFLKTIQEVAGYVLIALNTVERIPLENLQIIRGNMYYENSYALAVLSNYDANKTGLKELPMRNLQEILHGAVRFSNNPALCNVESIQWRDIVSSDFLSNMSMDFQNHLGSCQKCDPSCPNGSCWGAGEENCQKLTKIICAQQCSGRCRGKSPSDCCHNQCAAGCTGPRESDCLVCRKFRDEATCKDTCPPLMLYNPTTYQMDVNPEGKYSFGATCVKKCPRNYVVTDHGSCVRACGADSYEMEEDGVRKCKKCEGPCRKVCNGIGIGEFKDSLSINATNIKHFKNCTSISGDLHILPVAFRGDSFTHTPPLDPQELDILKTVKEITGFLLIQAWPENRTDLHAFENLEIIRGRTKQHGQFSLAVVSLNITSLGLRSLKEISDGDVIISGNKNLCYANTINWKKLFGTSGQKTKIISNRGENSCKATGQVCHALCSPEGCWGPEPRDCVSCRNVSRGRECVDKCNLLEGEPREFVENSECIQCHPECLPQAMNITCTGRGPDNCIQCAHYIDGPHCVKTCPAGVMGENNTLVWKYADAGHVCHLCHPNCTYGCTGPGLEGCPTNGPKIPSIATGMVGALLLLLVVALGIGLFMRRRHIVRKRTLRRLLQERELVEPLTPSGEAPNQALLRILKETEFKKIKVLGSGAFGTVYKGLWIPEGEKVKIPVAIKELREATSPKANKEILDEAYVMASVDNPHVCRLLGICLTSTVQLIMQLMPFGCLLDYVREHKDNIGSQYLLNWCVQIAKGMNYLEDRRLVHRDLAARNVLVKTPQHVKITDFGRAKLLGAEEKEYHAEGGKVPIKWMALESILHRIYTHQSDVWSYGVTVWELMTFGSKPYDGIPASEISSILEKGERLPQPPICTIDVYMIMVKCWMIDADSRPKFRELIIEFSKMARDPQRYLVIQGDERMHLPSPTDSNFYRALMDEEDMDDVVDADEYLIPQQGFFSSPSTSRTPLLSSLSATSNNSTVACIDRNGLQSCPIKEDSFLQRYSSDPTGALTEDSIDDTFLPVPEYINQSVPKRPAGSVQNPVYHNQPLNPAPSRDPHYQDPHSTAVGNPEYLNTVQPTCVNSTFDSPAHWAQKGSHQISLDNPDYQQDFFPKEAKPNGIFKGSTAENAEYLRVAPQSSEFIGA
T1 sequence (Q06187 whole entry): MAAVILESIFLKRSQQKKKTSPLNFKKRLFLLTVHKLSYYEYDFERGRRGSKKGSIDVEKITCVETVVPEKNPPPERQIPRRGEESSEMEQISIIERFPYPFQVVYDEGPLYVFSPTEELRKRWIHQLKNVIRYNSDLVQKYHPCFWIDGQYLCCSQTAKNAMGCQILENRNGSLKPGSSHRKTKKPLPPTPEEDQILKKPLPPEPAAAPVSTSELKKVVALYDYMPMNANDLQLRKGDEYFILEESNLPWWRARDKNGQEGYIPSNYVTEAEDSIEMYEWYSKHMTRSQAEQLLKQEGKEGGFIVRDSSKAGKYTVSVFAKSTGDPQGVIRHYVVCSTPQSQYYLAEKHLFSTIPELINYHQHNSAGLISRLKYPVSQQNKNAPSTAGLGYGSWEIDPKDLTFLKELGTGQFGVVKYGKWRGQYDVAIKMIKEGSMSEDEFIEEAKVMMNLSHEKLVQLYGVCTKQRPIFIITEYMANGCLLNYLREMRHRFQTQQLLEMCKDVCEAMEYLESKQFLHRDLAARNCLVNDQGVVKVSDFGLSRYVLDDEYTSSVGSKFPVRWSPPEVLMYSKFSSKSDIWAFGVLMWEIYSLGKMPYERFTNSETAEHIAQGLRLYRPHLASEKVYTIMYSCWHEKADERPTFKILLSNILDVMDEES
T2 sequence (P00533 25-1210): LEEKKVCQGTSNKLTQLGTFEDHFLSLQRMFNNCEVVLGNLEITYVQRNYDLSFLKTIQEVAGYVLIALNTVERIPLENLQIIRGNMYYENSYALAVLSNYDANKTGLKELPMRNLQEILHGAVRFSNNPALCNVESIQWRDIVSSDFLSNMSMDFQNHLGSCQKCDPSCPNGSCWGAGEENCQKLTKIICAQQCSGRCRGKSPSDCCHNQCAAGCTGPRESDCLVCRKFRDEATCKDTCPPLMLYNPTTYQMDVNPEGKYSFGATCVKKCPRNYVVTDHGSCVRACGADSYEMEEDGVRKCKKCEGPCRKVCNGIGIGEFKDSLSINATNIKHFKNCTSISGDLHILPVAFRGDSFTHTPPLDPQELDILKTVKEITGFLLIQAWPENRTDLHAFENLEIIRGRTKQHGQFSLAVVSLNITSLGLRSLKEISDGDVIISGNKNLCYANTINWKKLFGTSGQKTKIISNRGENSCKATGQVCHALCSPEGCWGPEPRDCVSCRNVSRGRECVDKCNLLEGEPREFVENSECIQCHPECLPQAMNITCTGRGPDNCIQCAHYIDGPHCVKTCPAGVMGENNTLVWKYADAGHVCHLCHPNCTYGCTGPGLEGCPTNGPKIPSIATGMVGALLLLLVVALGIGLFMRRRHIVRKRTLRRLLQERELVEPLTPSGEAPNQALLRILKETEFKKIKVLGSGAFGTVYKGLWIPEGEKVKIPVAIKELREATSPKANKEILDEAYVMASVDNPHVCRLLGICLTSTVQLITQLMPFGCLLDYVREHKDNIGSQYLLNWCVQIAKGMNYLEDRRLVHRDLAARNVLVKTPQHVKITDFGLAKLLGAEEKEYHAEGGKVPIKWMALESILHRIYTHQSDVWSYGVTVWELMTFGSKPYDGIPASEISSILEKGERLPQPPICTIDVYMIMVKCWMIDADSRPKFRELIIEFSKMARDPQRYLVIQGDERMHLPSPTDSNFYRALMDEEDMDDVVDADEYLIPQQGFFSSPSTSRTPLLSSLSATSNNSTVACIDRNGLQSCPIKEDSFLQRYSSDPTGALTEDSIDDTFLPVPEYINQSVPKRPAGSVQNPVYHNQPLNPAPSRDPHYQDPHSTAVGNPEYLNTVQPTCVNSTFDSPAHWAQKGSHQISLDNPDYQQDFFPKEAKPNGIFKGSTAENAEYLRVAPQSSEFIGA

inhibition at 0.1 µM (BTK) [%] | IC50 (A549 cells) [nM] | IC50 (A431 cells) [nM] | IC50 (H1975 cells) [nM] | inhibition at 0.1 µM (EGFR (ErbB1)) [%] | inhibition at 0.1 µM (EGFR (ErbB1) T790M L858R) [%] | IC50 (EGFR (ErbB1)) [nM] | IC50 (EGFR (ErbB1) T790M L858R) [nM] | IC50 (BTK) [nM] | IC50 (H3255 cells) [nM] | inhibition at 0.0137 µM (EGFR (ErbB1) T790M L858R; compound at 13.7 nM, 10 μM of ATP) [%] | Structure (SMILES)
> 50 | 100 to 500 | < 100 | < 100 | – | – | – | – | – | – | – | C=CC(=O)Nc1cc(Nc2ncc3cccc(-c4cccc(F)c4)c3n2)ccc1N1CC(N(C)C)C1 [Example C025, N-(2-(3-(dimethylamino)azetidin-1-yl)-5-((8-(3-fluorophenyl)quinazolin-2-yl)amino)phenyl)acrylamide]
> 50 | > 500 | < 100 | < 100 | – | – | – | – | – | – | – | C=CC(=O)Nc1cc(Nc2ncc3cccc(-c4cccc(F)c4)c3n2)c(OC)cc1N1CCC(N(C)C)C1 (stereo not shown) [Example C023, N-(2-(3-(dimethylamino)pyrrolidin-1-yl)-5-((8-(3-fluorophenyl)quinazolin-2-yl)amino)-4-methoxyphenyl)acrylamide]
> 50 | 100 to 500 | – | < 100 | > 50 | > 50 | – | – | – | – | – | C=CC(=O)Nc1cc(Nc2ncc3cccc(-c4cccc(Cl)c4)c3n2)c(OC)cc1N(C)CCN(C)C [Example C017, N-(5-((8-(3-chlorophenyl)quinazolin-2-yl)amino)-2-((2-(dimethylamino)ethyl)(methyl)amino)-4-methoxyphenyl)acrylamide]
– | > 500 | 100 to 500 | < 100 | – | – | > 100 | > 100 | > 100 | – | – | C=CC(=O)Nc1cc(Nc2ncc3cccc(Cl)c3n2)ccc1N(C)CCN(C)C [Example C002, N-(5-((8-chloroquinazolin-2-yl)amino)-2-((2-(dimethylamino)ethyl)(methyl)amino)phenyl) acrylamide]
> 50 | 100 to 500 | < 100 | < 100 | < 50 | > 50 | – | – | – | – | – | C=CC(=O)Nc1cc(Nc2ncc3cccc(-c4cncc(F)c4)c3n2)ccc1N(C)CCN(C)C [Example C022, N-(2-((2-(dimethylamino)ethyl)(methyl)amino)-5-((8-(5-fluoropyridin-3-yl)quinazolin-2-yl)amino)phenyl)acrylamide]
> 50 | 100 to 500 | < 100 | < 100 | > 50 | > 50 | > 100 | < 100 | – | < 100 | – | C=CC(=O)Nc1cc(Nc2ncc3cccc(-c4cccc(Cl)c4)c3n2)ccc1N(C)CCN(C)C [Example C005, N-(5-((8-(3-chlorophenyl)quinazolin-2-yl)amino)-2-((2-(dimethylamino)ethyl)(methyl)amino)phenyl) acrylamide]
> 50 | < 100 | < 100 | < 100 | > 50 | > 50 | < 100 | < 100 | – | < 100 | – | C=CC(=O)Nc1cc(Nc2ncc3cccc(-c4cccc(F)c4)c3n2)ccc1N(C)CCN(C)C [Example C006, N-(2-((2-(dimethylamino)ethyl)(methyl)amino)-5-((8-(3-fluorophenyl)quinazolin-2-yl)amino)phenyl)acrylamide]
> 50 | < 100 | < 100 | < 100 | > 50 | > 50 | > 100 | < 100 | < 100 | < 100 | – | C=CC(=O)Nc1cc(Nc2ncc3cccc(-c4ccccc4)c3n2)ccc1N(C)CCN(C)C [Example C004, N-(2-((2-(dimethylamino)ethyl)(methyl)amino)-5-((8-phenylquinazolin-2-yl)amino)phenyl)acrylamide]
< 50 | > 500 | 100 to 500 | < 100 | – | < 50 | – | – | – | – | < 50 | C=CC(=O)Nc1cc(Nc2ncc3cccc(OC)c3n2)ccc1N(C)CCN(C)C [Example C003, N-(2-((2-(dimethylamino)ethyl)(methyl)amino)-5-((8-methoxyquinazolin-2-yl)amino)phenyl)acrylamide]
> 50 | 100 to 500 | < 100 | < 100 | – | – | – | – | – | – | – | C=CC(=O)Nc1cc(Nc2ncc3cccc(-c4cccc(F)c4)c3n2)ccc1N1CCC(N(C)C)C1 (stereo not shown) [Example C024, N-(2-(3-(dimethylamino)pyrrolidin-1-yl)-5-((8-(3-fluorophenyl)quinazolin-2-yl)amino)phenyl)acrylamide]
> 50 | 100 to 500 | – | < 100 | > 50 | > 50 | – | – | – | – | – | C=CC(=O)Nc1cc(Nc2ncc3cccc(-c4cccc(Cl)c4)c3n2)c(OC)cc1OC1CCN(C)C1 (stereo not shown) [Example C020, N-(5-((8-(3-chlorophenyl)quinazolin-2-yl)amino)-4-methoxy-2-((1-methylpyrrolidin-3-yl)oxy)phenyl)acrylamide]
> 50 | 100 to 500 | – | < 100 | > 50 | > 50 | – | – | – | – | – | C=CC(=O)Nc1cc(Nc2ncc3cccc(-c4cccc(F)c4)c3n2)c(OC)cc1N(C)CCN(C)C [Example C018, N-(2-((2-(dimethylamino)ethyl)(methyl)amino)-5-((8-(3-fluorophenyl)quinazolin-2-yl)amino)-4-methoxyphenyl)acrylamide]
